Key:
[1] = test system: Sprague-Dawley rats; test: Open field activity; format: in vivo, rat; conditions: 1 h following administration
Experimental: For the measurement of open field activity animals were placed in an acrylic chamber (40×40×20 cm length×width×height) divided into 100 cm^2 (10×10 cm) sections. The number of crossings were recorded when both hind paws crossed into a neighboring cell.

[2] = test system: Sprague-Dawley rats; test: Acute nociceptive responses in healthy rats, Hargreaves thermal withdrawal latency; format: in vivo, rat; conditions: for antagonism of / interaction with rolipram-produced increase in thermal withdrawal latency: Hargreaves, celecoxib 20, fluconazole 40, micanozole 40, finasteride 10, picrotoxin 0.25 mg/kg
[3] = biological target: T1, sEH (Homo sapiens, UniProt P34913); test: sEH inhibition as stated in the general description (earlier tests, '506 patent); format: biochemical
T1 sequence (P34913 1-555): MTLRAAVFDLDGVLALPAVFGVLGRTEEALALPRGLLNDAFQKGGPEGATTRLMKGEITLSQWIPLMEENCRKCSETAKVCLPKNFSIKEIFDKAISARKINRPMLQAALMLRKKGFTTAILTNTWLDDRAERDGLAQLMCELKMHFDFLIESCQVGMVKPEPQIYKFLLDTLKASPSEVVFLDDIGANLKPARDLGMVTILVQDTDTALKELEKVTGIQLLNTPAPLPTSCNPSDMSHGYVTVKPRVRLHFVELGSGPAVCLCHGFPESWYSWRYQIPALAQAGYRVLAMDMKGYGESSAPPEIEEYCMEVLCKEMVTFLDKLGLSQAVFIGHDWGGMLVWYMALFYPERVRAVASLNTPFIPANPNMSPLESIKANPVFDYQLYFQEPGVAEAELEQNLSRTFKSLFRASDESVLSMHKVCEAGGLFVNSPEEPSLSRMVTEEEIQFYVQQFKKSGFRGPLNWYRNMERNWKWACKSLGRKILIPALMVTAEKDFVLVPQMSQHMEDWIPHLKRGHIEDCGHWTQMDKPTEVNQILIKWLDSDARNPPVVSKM

[4] = test system: endogenous oxylipin sEH substrates and products in rat plasma; test: Oxylipin analysis in rat plasma after sEHI / PDE inhibitor administration (LC-ESI-MS/MS); format: in vivo; conditions: rat plasma 45 min after s.c.; 1 mg/kg, pentoxyphilline 10 mg/kg;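 also: plasma from tail vein blood, oxylipins quantified by LC-ESI-MS/MS against deuterated internal standards following solid-phase extraction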
[5] = test system: Sprague-Dawley rats; test: Acute nociceptive responses in healthy rats, Randall-Selitto mechanical sensitivity assay; format: in vivo, rat; conditions: picrotoxin 0.25 mg/kg s.c.

CC(=O)N1CCC(NC(=O)Nc2ccc(OC(F)(F)F)cc2)CC1 [TPAU]
voluntary movement in an open-field chamber (motor depressant effect) [1]: indistinguishable from baseline activity

OC(Cn1cncn1)(Cn1cncn1)c1ccc(F)cc1F [fluconazole]
antagonism of / interaction with rolipram-produced increase in thermal withdrawal latency [2]: Noncompetitive antagonism

CCCCCCCCCCCCNC(=O)NC12CC3CC(CC(C3)C1)C2 [ADU, N-Adamantyl-N′-dodecyl urea]
activity as inhibitor of sEH [3]: particularly high activity on sEH

Clc1ccc(COC(Cn2ccnc2)c2ccc(Cl)cc2Cl)c(Cl)c1 (stereo not drawn) [micanozole]
antagonism of / interaction with rolipram-produced increase in thermal withdrawal latency [2]: lack of antagonism

CC(=O)CCCCn1c(=O)c2c(ncn2C)n(C)c1=O [Pentoxyphilline]
8(9)-EpETE [4]: 1.27 nM
8(9)-EpETrE [4]: 6.41 nM
8,9-DiHETE [4]: 0.30 nM
8,9-DiHETrE [4]: 0.54 nM
9(10)-EpOME [4]: 59.92 nM
9,10-DiHOME [4]: 34.24 nM
10(11)-EpDPE [4]: 7.86 nM
10,11-DiHDPE [4]: 0.71 nM
11(12)-EpETE [4]: 0.80 nM
11(12)-EpETrE [4]: 10.60 nM
11,12-DiHETE [4]: 0.45 nM
11,12-DiHETrE [4]: 1.77 nM
12(13)-EpOME [4]: 87.05 nM
12,13-DiHOME [4]: 50.89 nM
13(14)-EpDPE [4]: 4.20 nM
13,14-DiHDPE [4]: 0.79 nM
14(15)-EpETE [4]: 0.69 nM
14(15)-EpETrE [4]: 14.76 nM
14,15-DiHETE [4]: 1.06 nM
14,15-DiHETrE [4]: 1.73 nM
16(17)-EpDPE [4]: 5.07 nM
16,17-DiHDPE [4]: 2.20 nM
17(18)-EpETE [4]: 3.08 nM
17,18-DiHETE [4]: 2.81 nM
19(20)-EpDPE [4]: 12.04 nM
19,20-DiHDPE [4]: 6.00 nM
Ratio 8(9)-EpETE / 8,9-DiHETE [4]: 4.15
Ratio 8(9)-EpETrE / 8,9-DiHETrE [4]: 11.91
Ratio 9(10)-EpOME / 9,10-DiHOME [4]: 1.75
Ratio 10(11)-EpDPE / 10,11-DiHDPE [4]: 11.13
Ratio 11(12)-EpETE / 11,12-DiHETE [4]: 1.79
Ratio 11(12)-EpETrE / 11,12-DiHETrE [4]: 6.00
Ratio 12(13)-EpOME / 12,13-DiHOME [4]: 1.71
Ratio 13(14)-EpDPE / 13,14-DiHDPE [4]: 5.30
Ratio 14(15)-EpETE / 14,15-DiHETE [4]: 0.66
Ratio 14(15)-EpETrE / 14,15-DiHETrE [4]: 8.52
Ratio 16(17)-EpDPE / 16,17-DiHDPE [4]: 2.30
Ratio 17(18)-EpETE / 17,18-DiHETE [4]: 1.10
Ratio 19(20)-EpDPE / 19,20-DiHDPE [4]: 2.01
total Di-hydroxyeicosanoid [4]: 423.15 nM
total Epoxyeicosanoid [4]: 497.36 nM
total Ratio epoxy/dihydroxy eicosanoids [4]: 1.18

CC(C)(C)NC(=O)[C@H]1CC[C@H]2[C@@H]3CC[C@H]4NC(=O)C=C[C@]4(C)[C@H]3CC[C@]12C [finasteride]
antagonism of / interaction with rolipram-produced increase in thermal withdrawal latency [2]: competitive antagonism

CN(C(=O)CCCOc1ccc2[nH]c(=O)ccc2c1)C1CCCCC1 [Cilostamide]
8(9)-EpETE [4]: 0.74 nM
8(9)-EpETrE [4]: 3.13 nM
8,9-DiHETE [4]: 0.27 nM
8,9-DiHETrE [4]: 0.47 nM
9(10)-EpOME [4]: 32.41 nM
9,10-DiHOME [4]: 29.53 nM
10(11)-EpDPE [4]: 4.06 nM
10,11-DiHDPE [4]: 0.66 nM
11(12)-EpETE [4]: 0.45 nM
11(12)-EpETrE [4]: 4.44 nM
11,12-DiHETE [4]: 0.43 nM
11,12-DiHETrE [4]: 1.60 nM
12(13)-EpOME [4]: 51.82 nM
12,13-DiHOME [4]: 37.98 nM
13(14)-EpDPE [4]: 2.23 nM
13,14-DiHDPE [4]: 0.73 nM
14(15)-EpETE [4]: 0.49 nM
14(15)-EpETrE [4]: 7.71 nM
14,15-DiHETE [4]: 1.24 nM
14,15-DiHETrE [4]: 1.82 nM
16(17)-EpDPE [4]: 2.94 nM
16,17-DiHDPE [4]: 2.28 nM
17(18)-EpETE [4]: 2.66 nM
17,18-DiHETE [4]: 3.08 nM
19(20)-EpDPE [4]: 8.95 nM
19,20-DiHDPE [4]: 5.50 nM
Ratio 8(9)-EpETE / 8,9-DiHETE [4]: 2.81
Ratio 8(9)-EpETrE / 8,9-DiHETrE [4]: 6.69
Ratio 9(10)-EpOME / 9,10-DiHOME [4]: 1.10
Ratio 10(11)-EpDPE / 10,11-DiHDPE [4]: 6.13
Ratio 11(12)-EpETE / 11,12-DiHETE [4]: 1.04
Ratio 11(12)-EpETrE / 11,12-DiHETrE [4]: 2.78
Ratio 12(13)-EpOME / 12,13-DiHOME [4]: 1.36
Ratio 13(14)-EpDPE / 13,14-DiHDPE [4]: 3.05
Ratio 14(15)-EpETE / 14,15-DiHETE [4]: 0.39
Ratio 14(15)-EpETrE / 14,15-DiHETrE [4]: 4.24
Ratio 16(17)-EpDPE / 16,17-DiHDPE [4]: 1.29
Ratio 17(18)-EpETE / 17,18-DiHETE [4]: 0.86
Ratio 19(20)-EpDPE / 19,20-DiHDPE [4]: 1.63
total Di-hydroxyeicosanoid [4]: 322.82 nM
total Epoxyeicosanoid [4]: 1014.12 nM
total Ratio epoxy/dihydroxy eicosanoids [4]: 3.14

CCc1ccc2c(-c3cccc(Cl)c3)nc(=O)n(CC)c2n1 [YM976]
8(9)-EpETE [4]: 2.74 nM
8(9)-EpETrE [4]: 13.59 nM
8,9-DiHETE [4]: 0.29 nM
8,9-DiHETrE [4]: 0.58 nM
9(10)-EpOME [4]: 147.05 nM
9,10-DiHOME [4]: 37.07 nM
10(11)-EpDPE [4]: 20.16 nM
10,11-DiHDPE [4]: 0.82 nM
11(12)-EpETE [4]: 2.23 nM
11(12)-EpETrE [4]: 22.80 nM
11,12-DiHETE [4]: 0.48 nM
11,12-DiHETrE [4]: 1.55 nM
12(13)-EpOME [4]: 159.31 nM
12,13-DiHOME [4]: 57.32 nM
13(14)-EpDPE [4]: 10.28 nM
13,14-DiHDPE [4]: 0.81 nM
14(15)-EpETE [4]: 1.99 nM
14(15)-EpETrE [4]: 26.50 nM
14,15-DiHETE [4]: 1.19 nM
14,15-DiHETrE [4]: 1.84 nM
16(17)-EpDPE [4]: 10.41 nM
16,17-DiHDPE [4]: 2.22 nM
17(18)-EpETE [4]: 4.49 nM
17,18-DiHETE [4]: 2.95 nM
19(20)-EpDPE [4]: 18.10 nM
19,20-DiHDPE [4]: 6.24 nM
Ratio 8(9)-EpETE / 8,9-DiHETE [4]: 9.62
Ratio 8(9)-EpETrE / 8,9-DiHETrE [4]: 23.44
Ratio 9(10)-EpOME / 9,10-DiHOME [4]: 3.97
Ratio 10(11)-EpDPE / 10,11-DiHDPE [4]: 24.59
Ratio 11(12)-EpETE / 11,12-DiHETE [4]: 4.69
Ratio 11(12)-EpETrE / 11,12-DiHETrE [4]: 14.76
Ratio 12(13)-EpOME / 12,13-DiHOME [4]: 2.78
Ratio 13(14)-EpDPE / 13,14-DiHDPE [4]: 12.66
Ratio 14(15)-EpETE / 14,15-DiHETE [4]: 1.67
Ratio 14(15)-EpETrE / 14,15-DiHETrE [4]: 14.43
Ratio 16(17)-EpDPE / 16,17-DiHDPE [4]: 4.68
Ratio 17(18)-EpETE / 17,18-DiHETE [4]: 1.52
Ratio 19(20)-EpDPE / 19,20-DiHDPE [4]: 2.90
total Di-hydroxyeicosanoid [4]: 423.59 nM
total Epoxyeicosanoid [4]: 535.16 nM
total Ratio epoxy/dihydroxy eicosanoids [4]: 1.26

picrotoxin
antagonism of the increase in mechanical withdrawal threshold produced by rolipram/AUDA [5]: effectively antagonized
antagonism of / interaction with rolipram-produced increase in thermal withdrawal latency [2]: partially blocked rolipram
thermal withdrawal latency / pain related behavior, change from predrug baseline ([2]; healthy rats, s.c., about 1 h after administration): ineffective on its own in changing pain related behavior
antagonism of the increase in thermal withdrawal latency produced by rolipram/AUDA ([2]; picrotoxin 0.25 mg/kg s.c.): effectively antagonized
